According to PMC8584173, “The Cytotoxic Effect of Copper (II) Complexes with Halogenated 1,3-Disubstituted Arylthioureas on Cancer and Bacterial Cells” (International Journal of Molecular Sciences, 2021):

How the values were obtained:
S. epidermidis 420 = assay: MIC, hospital MRSE strain; type: cell-based, Staphylococcus epidermidis; conditions: hospital MRSE S. epidermidis 420
Method: (§1) The antimicrobial activity of the compounds was tested on Gram-positive bacteria (Staphylococcus aureus NCTC 4163, Staphylococcus aureus ATCC 25923, Staphylococcus aureus ATCC 6538, Staphylococcus aureus ATCC 29213, Staphylococcus epidermidis ATCC 12228, Staphylococcus epidermidis ATCC 35984), Gram-negative rods (Escherichia coli ATCC 10538, Escherichia coli ATCC 25922, Pseudomonas aeruginosa ATCC 15442, Pseudomonas aeruginosa ATCC 27863) and yeasts (Candida albicans ATCC 10231, Candida albicans ATCC 90028, Candida parapsilosis ATCC 22019). Hospital methicillin-resistant strains of Staphylococcus aureus and Staphylococcus epidermidis were obtained from the collection of the Department of Pharmaceutical Microbiology, Medical University of Warsaw, Poland.
(§2) Antifungal activities were assessed using Mueller–Hinton agar + 2% glucose and 0.5 µg/mL methylene blue dye medium. Sterile filter paper discs (9 mm diameter, Whatman Number 3 chromatography paper) were dripped with tested compound solutions (in dimethylsulfoxide, DMSO) to load 400 μg of a given compound per disc. Dry discs were placed on the surface of appropriate agar medium. The results (diameter of the growth inhibition zone) were read after 18 h of incubation at 35 °C. Minimal inhibitory concentration (MIC) was tested by the twofold serial microdilution method (in 96-well microtiter plates) using Mueller–Hinton broth medium (Beckton Dickinson) for bacteria or RPMI-1640 medium for Candida species, according to CLSI guidelines. The stock solution of tested agent was prepared in DMSO and diluted in sterile water. […] The final inoculum of all studied microorganisms was 10^5 CFU/ mL^−1 (colony forming units per ml). Minimal inhibitory concentrations (the lowest concentration of a tested agent that prevents visible growth of a microorganism) were read after 18 h (bacteria) or 24 h (yeasts) of incubation at 35 °C.

S. epidermidis 423 = assay: MIC, hospital MRSE strain; type: cell-based, Staphylococcus epidermidis; conditions: hospital MRSE S. epidermidis 423
Method: as §1, §2

S. epidermidis 436 = assay: MIC, hospital MRSE strain; type: cell-based, Staphylococcus epidermidis; conditions: hospital MRSE S. epidermidis 436
Method: as §1, §2

[1] = test system: S. epidermidis ATCC 12228; assay: MIC, twofold serial microdilution; type: cell-based, Staphylococcus epidermidis; conditions: S. epidermidis ATCC 12228, 18 h, 35 °C
Method: as §1, §2

[2] = test system: S. epidermidis ATCC 35984; assay: MIC, twofold serial microdilution; type: cell-based, Staphylococcus epidermidis; conditions: S. epidermidis ATCC 35984, 18 h, 35 °C
Method: as §1, §2

P. aeruginosa ATCC 15442 = assay: MIC, twofold serial microdilution; type: cell-based, Pseudomonas aeruginosa; conditions: P. aeruginosa ATCC 15442, 18 h, 35 °C
Method: as §1, §2

P. aeruginosa ATCC 27853 = assay: MIC, twofold serial microdilution; type: cell-based, Pseudomonas aeruginosa; conditions: P. aeruginosa ATCC 27853, 18 h, 35 °C
Method: as §1, §2

SW620 cells = assay: Annexin V-FITC/PI flow cytometry, SW620; type: cell-based, human; conditions: SW620, IC50 dose, 72 h
Method: The cells were cultured and harvested under the conditions described in the cell culture section. […] The effect of these compounds on the process of early and late apoptosis and necrosis was determined, as described previously, by dual staining with annexin V-FITC and propidium iodide according to manufacturer’s protocol (Becton Dickinson). The cells that were annexin V-FITC positive and PI-negative were identified as early apoptotic and annexin V-FITC and PI-positive as late apoptotic or necrotic.

C. albicans ATCC 10231 = assay: MIC, twofold serial microdilution; type: cell-based, Candida albicans; conditions: C. albicans ATCC 10231, 24 h, 35 °C
Method: as §1, §2

C. albicans ATCC 90028 = assay: MIC, twofold serial microdilution; type: cell-based, Candida albicans; conditions: C. albicans ATCC 90028, 24 h, 35 °C
Method: as §1, §2

[3] = test system: Bacillus subtilis H17 (rec+); assay: Bacillus subtilis rec-assay, H17; type: cell-based; conditions: B. subtilis H17; 256 µg per disc (NOQ 2 µg per disc)
Method: DNA-damaging activity of compounds was tested by rec-assay using two genetically modified Bacillus subtilis strains: M45 (rec^−) and H17 (rec^+). Tested compounds were dissolved in DMSO, and 10 µL of each solution was dripped onto sterile cotton discs (Rotilabo) to load 256 µg of a given compound per 9 mm disc. Discs were placed on the surface nutrient agar plates (Difco), inoculated with 100 µL of bacterial overnight culture and incubated […] at 35 °C. After incubation, the growth inhibition zones were measured. […] Results of the genotoxicity test were estimated after 18 h of incubation at 35 °C by comparing the diameter of the inhibition zone on the B. subtilis M45 (rec^−) strain with that on the B. subtilis H17 (rec^+) strain.

[4] = test system: SW480, SW620, PC3 cancer cells; assay: MTT cytotoxicity assay, all cancer cell lines; type: cell-based, human; conditions: span or bound over SW480, SW620, PC3; 72 h; read-out: IC50 over the tested cancer cell lines
Method: The human primary (SW480), metastatic (SW620) colon cancer, metastatic prostate cancer (PC3) and human immortal keratinocyte (HaCaT) cell lines were purchased from the American Type Culture Collection (ATCC, Rockville, USA). The cells were cultured in medium according to protocols (MEM for SW480 and SW620, RPMI 1640 for PC3 and DMEM for HaCaT cells) supplemented with 10% fetal bovine serum (FBS), penicillin (100 U/mL) and streptomycin (100 μg/mL) and cultured in 37 °C/ 5% CO2 humidified incubator. The cells were cultured until appropriate confluence was achieved (80–90%). Next, they were harvested by treatment with 0.25% trypsin (Gibco Life Technologies, USA) and used for studies.
Cells without studied compounds in medium were used as a control.
The cell viability was assessed by determination of MTT salt (3-(4,5-dimethylthiazol-2-yl)-2,5-diphenyltetrazolium bromide) conversion by mitochondrial dehydrogenase. MTT assay was performed as previously described. Experiments were repeated three times. Cell viability was presented as a percentage of MTT reduction in the treated cells versus the control cells. Number of viable cells cultured without studied compounds was assumed to be 100%. Decreased relative MTT level means decreased cell viability. Thiourea complexes with the highest cytotoxic potential assessed by MTT determination (with the lowest IC50) were chosen for subsequent assessments of cytotoxicity mechanisms.

O=[N+]([O-])c1cc([N+]2=C(Nc3ccccc3Br)[S][Cu-2]23[S]C(Nc2ccccc2Br)=[N+]3c2ccc(Cl)c([N+](=O)[O-])c2)ccc1Cl [Compound 1, Copper (II) complex with 1-(2-bromophenyl)-3-(4-chloro-3-nitrophenyl)thiourea]
MIC (S. epidermidis 420): 4 µg/mL | MIC (S. epidermidis 423): 8 µg/mL | MIC (S. epidermidis 436): 8 µg/mL | MIC [1]: 16 µg/mL | MIC [2]: 8 µg/mL | MIC (P. aeruginosa ATCC 15442): 128 µg/mL | MIC (P. aeruginosa ATCC 27853): 128 µg/mL | early apoptosis, % of cells (SW620 cells): 38.4% ± 2.4% | MIC (C. albicans ATCC 10231): ≥256 µg/mL | MIC (C. albicans ATCC 90028): ≥256 µg/mL | inhibition zone diameter [3]: 12 mm

O=[N+]([O-])c1cc([N+]2=C(Nc3cccc(Br)c3)[S][Cu-2]23[S]C(Nc2cccc(Br)c2)=[N+]3c2ccc(Cl)c([N+](=O)[O-])c2)ccc1Cl [Compound 2, Copper (II) complex with 1-(3-bromophenyl)-3-(4-chloro-3-nitrophenyl)thiourea]
MIC (S. epidermidis 420): 8 µg/mL | MIC (S. epidermidis 423): 8 µg/mL | MIC (S. epidermidis 436): 8 µg/mL | MIC [1]: 16 µg/mL | MIC [2]: 16 µg/mL | MIC (P. aeruginosa ATCC 15442): 128 µg/mL | MIC (P. aeruginosa ATCC 27853): 128 µg/mL | MIC (C. albicans ATCC 10231): 64 µg/mL | MIC (C. albicans ATCC 90028): 64 µg/mL | inhibition zone diameter [3]: 17 mm

O=[N+]([O-])c1cc([N+]2=C(Nc3ccc(Br)cc3)[S][Cu-2]23[S]C(Nc2ccc(Br)cc2)=[N+]3c2ccc(Cl)c([N+](=O)[O-])c2)ccc1Cl [Compound 3, Copper (II) complex with 1-(4-bromophenyl)-3-(4-chloro-3-nitrophenyl)thiourea]
MIC (S. epidermidis 420): 8 µg/mL | MIC (S. epidermidis 423): 4 µg/mL | MIC (S. epidermidis 436): 4 µg/mL | MIC [1]: 16 µg/mL | MIC [2]: 16 µg/mL | MIC (P. aeruginosa ATCC 15442): 128 µg/mL | MIC (P. aeruginosa ATCC 27853): 128 µg/mL | IC50 [4]: ≤ 10 µM | early apoptosis, % of cells (SW620 cells): approximately 20% | MIC (C. albicans ATCC 10231): 64 µg/mL | MIC (C. albicans ATCC 90028): 64 µg/mL | inhibition zone diameter [3]: 15 mm

O=[N+]([O-])c1cc([N+]2=C(Nc3ccc(F)c(Cl)c3)[S][Cu-2]23[S]C(Nc2ccc(F)c(Cl)c2)=[N+]3c2ccc(Cl)c([N+](=O)[O-])c2)ccc1Cl [Compound 4, Copper (II) complex with 1-(3-chloro-4-fluorophenyl)-3-(4-chloro-3-nitrophenyl)thiourea]
MIC (S. epidermidis 420): 4 µg/mL | MIC (S. epidermidis 423): 4 µg/mL | MIC (S. epidermidis 436): 8 µg/mL | MIC [1]: 4 µg/mL | MIC [2]: 4 µg/mL | MIC (P. aeruginosa ATCC 15442): 128 µg/mL | MIC (P. aeruginosa ATCC 27853): 128 µg/mL | MIC (C. albicans ATCC 10231): 128 µg/mL | MIC (C. albicans ATCC 90028): 128 µg/mL | inhibition zone diameter [3]: 16 mm

O=[N+]([O-])c1cc([N+]2=C(Nc3ccc(Cl)c(Cl)c3)[S][Cu-2]23[S]C(Nc2ccc(Cl)c(Cl)c2)=[N+]3c2ccc(Cl)c([N+](=O)[O-])c2)ccc1Cl [Compound 5, Copper (II) complex with 1-(4-chloro-3-nitrophenyl)-3-(3,4-dichlorophenyl)thiourea]
MIC (S. epidermidis 420): 32 µg/mL | MIC (S. epidermidis 423): 32 µg/mL | MIC (S. epidermidis 436): 32 µg/mL | MIC [1]: 32 µg/mL | MIC [2]: 32 µg/mL | MIC (P. aeruginosa ATCC 15442): 128 µg/mL | MIC (P. aeruginosa ATCC 27853): 128 µg/mL | IC50 [4]: ≤ 10 µM | MIC (C. albicans ATCC 10231): 128 µg/mL | MIC (C. albicans ATCC 90028): 128 µg/mL | inhibition zone diameter [3]: 17 mm

O=[N+]([O-])c1cc(NC2=[N+](c3ccc(Cl)c([N+](=O)[O-])c3)[Cu-2]3([S]2)[S]C(Nc2ccc(Cl)c([N+](=O)[O-])c2)=[N+]3c2ccc(Cl)c([N+](=O)[O-])c2)ccc1Cl [Compound 6, Copper (II) complex with 1,3-bis(4-chloro-3-nitrophenyl)thiourea]
MIC (S. epidermidis 420): 64 µg/mL | MIC (S. epidermidis 423): 64 µg/mL | MIC (S. epidermidis 436): 128 µg/mL | MIC [1]: 8 µg/mL | MIC [2]: 8 µg/mL | MIC (P. aeruginosa ATCC 15442): 128 µg/mL | MIC (P. aeruginosa ATCC 27853): 128 µg/mL | IC50 [4]: ≥ 20.3 µM | MIC (C. albicans ATCC 10231): 64 µg/mL | MIC (C. albicans ATCC 90028): 64 µg/mL | inhibition zone diameter [3]: 16 mm

O=[N+]([O-])c1cc([N+]2=C(Nc3ccccc3F)[S][Cu-2]23[S]C(Nc2ccccc2F)=[N+]3c2ccc(Cl)c([N+](=O)[O-])c2)ccc1Cl [Compound 7, Copper (II) complex with 1-(2-fluorophenyl)-3-(4-chloro-3-nitrophenyl)thiourea]
MIC (S. epidermidis 420): 8 µg/mL | MIC (S. epidermidis 423): 8 µg/mL | MIC (S. epidermidis 436): 8 µg/mL | MIC [1]: 32 µg/mL | MIC [2]: 32 µg/mL | MIC (P. aeruginosa ATCC 15442): >256 µg/mL | MIC (P. aeruginosa ATCC 27853): 128 µg/mL | IC50 [4]: ≤ 10 µM | early apoptosis, % of cells (SW620 cells): 35.4% ± 2.8% | MIC (C. albicans ATCC 10231): 128 µg/mL | MIC (C. albicans ATCC 90028): 128 µg/mL | inhibition zone diameter [3]: 15 mm

O=[N+]([O-])c1cc([N+]2=C(Nc3ccc(I)cc3)[S][Cu-2]23[S]C(Nc2ccc(I)cc2)=[N+]3c2ccc(Cl)c([N+](=O)[O-])c2)ccc1Cl [Compound 8, Copper (II) complex with 1-(4-iodophenyl)-3-(4-chloro-3-nitrophenyl)thiourea]
MIC (S. epidermidis 420): 8 µg/mL | MIC (S. epidermidis 423): 8 µg/mL | MIC (S. epidermidis 436): 8 µg/mL | MIC [1]: 8 µg/mL | MIC [2]: 4 µg/mL | MIC (P. aeruginosa ATCC 15442): 128 µg/mL | MIC (P. aeruginosa ATCC 27853): 128 µg/mL | early apoptosis, % of cells (SW620 cells): approximately 20% | MIC (C. albicans ATCC 10231): 64 µg/mL | MIC (C. albicans ATCC 90028): 128 µg/mL | inhibition zone diameter [3]: 14 mm
